Experimental findings from patent EP1043020A1, “MEDICINAL COMPOSITION FOR PERCUTANEOUS ADMINISTRATION” (priority 1997, dated 1999) are described below.

Like-named read-outs stand apart in the source and are kept apart here.

Series [1] in a line: in vitro skin permeability test in pig. Type of series: in vitro ADME, Yucatan miniature pig.
Experiment in series [2]: not given
The source holds these as a separate data set.

In the case of `CC(=N)N1CC[C@H](Oc2ccc([C@H](Cc3ccc4ccc(C(=N)N)cc4c3)C(=O)O)cc2)C1.Cl.O.O.O.O.O` [compound A, (2S)-2-[4-[((3S)-1-acetimidoyl-3-pyrrolidinyl)oxy]phenyl]-3-(7-amidino-2-naphthyl)propionic acid hydrochloride pentahydrate], the “Percutaneous absorption enhancing effect” value turned out to be 1.0 and the “Q24 (cumulative skin permeation amount of compound A per unit area for 24 hours)” value is 709.05 ± 76.18 µg/cm^2. In addition, in series [1], the “Percutaneous absorption enhancing effect” value is 1.0. The “Q48 (cumulative skin permeation amount of compound A per unit area for 48 hours)” value in series [2] (human skin (2): horny, epidermal, dermal and some fat layers, approximately 1 mm, freeze-stored, thawed, fat removed, donor: compound A 50 mg/mL with enhancer, mean ± S.E., n=2 or 3) is “(2) 3 ± 1 µg/cm^2”. In addition, the “Percutaneous absorption enhancing effect” value in series [2] (human skin (2), ratio of Q48 of compound A with enhancer to that without enhancer (3 ± 1)) is on record as 1.0.
